Reference: patent US10968236B2, “TYK2 inhibitors and uses thereof” (Nimbus Lakshmi, Inc., priority 2015, dated 2021)
pKi: −log10 of the molar value.

Experiments:
JAK2 = JAK2 (Homo sapiens (Human), UniProt O60674); test: JAK2 activity inhibition assay (radioactive kinase / Caliper assay); format: biochemical
Description: (§1) Peptide substrate, [KKSRGDYMTMQIG], (20 μM) is prepared in reaction buffer (20 mM Hepes pH 7.5, 10 mM MgCl2, 1 mM EGTA, 0.02% Brij35, 0.02 mg/mL BSA, 0.1 mM […], 2 mM DTT, 1% DMSO. TYK2 (Invitrogen) kinase is added, followed by compounds in DMSO. 33PATP is added to initiate the reaction in ATP at 10 μM. Kinase reaction is incubated for 120 min at room temp and reactions are spotted onto P81 ion exchange paper (Whatman #3698-915), and then washed extensively in 0.75% phosphoric acid, prior to reading the radioactivity counts. For JAK2 (Invitrogen) kinase assay the peptide substrate poly[Glu:Tyr] (4:1), 0.2 mg/ml is used, in the reaction carried out the same as for TYK2.
(§2) The caliper machine employs an off chip mobility shift assay to detect phosphorylated peptide substrates from kinase assays, using microfluidics technology. The assays are carried out at ATP concentration equivalent to the ATP Km, and at 1 mM ATP. Compounds are serially diluted in DMSO then further diluted in assay buffer (25 mM HEPES, pH 7.5, 0.01% Brij-35, 0.01% Triton, 0.5 mM EGTA). 5 ul of diluted compound was added into wells first, then 10 ul of enzyme mix was added into wells, followed by 10 uL of substrate mix (peptide and ATP in 10 mM MgCl2) to start reaction. Reaction was incubated at 28° C. for 25 min and then added 25 ul stop buffer (100 mM HEPES, 0.015% Brij-35, 50 mM EDTA), followed by reading with Caliper. JAK2 at 1 nM final concentration and TYK2 at 9.75 nM are from Carna, and substrates used are ATP at 20 and 16 uM, respectively. JAK2 assay uses peptide 22 and TYK2 uses peptide 30 (Caliper), each at 3 uM.
(§3) The compound numbers correspond to the compound numbers in Table 1. Compounds having an activity designated as “A” provided an Ki≤0.01 μM; compounds having an activity designated as “B” provided an Ki of 0.01-0.1 μM; compounds having an activity designated as “C” provided an Ki of 0.1-1.0 μM; and compounds having an activity designated as “D” provided an Ki≥1.0 μM.

TYK2 = TYK2 (Homo sapiens (Human), UniProt P29597); test: Tyk2 activity inhibition assay (radioactive kinase / Caliper assay); format: biochemical
Sequence of TYK2 (P29597 whole entry): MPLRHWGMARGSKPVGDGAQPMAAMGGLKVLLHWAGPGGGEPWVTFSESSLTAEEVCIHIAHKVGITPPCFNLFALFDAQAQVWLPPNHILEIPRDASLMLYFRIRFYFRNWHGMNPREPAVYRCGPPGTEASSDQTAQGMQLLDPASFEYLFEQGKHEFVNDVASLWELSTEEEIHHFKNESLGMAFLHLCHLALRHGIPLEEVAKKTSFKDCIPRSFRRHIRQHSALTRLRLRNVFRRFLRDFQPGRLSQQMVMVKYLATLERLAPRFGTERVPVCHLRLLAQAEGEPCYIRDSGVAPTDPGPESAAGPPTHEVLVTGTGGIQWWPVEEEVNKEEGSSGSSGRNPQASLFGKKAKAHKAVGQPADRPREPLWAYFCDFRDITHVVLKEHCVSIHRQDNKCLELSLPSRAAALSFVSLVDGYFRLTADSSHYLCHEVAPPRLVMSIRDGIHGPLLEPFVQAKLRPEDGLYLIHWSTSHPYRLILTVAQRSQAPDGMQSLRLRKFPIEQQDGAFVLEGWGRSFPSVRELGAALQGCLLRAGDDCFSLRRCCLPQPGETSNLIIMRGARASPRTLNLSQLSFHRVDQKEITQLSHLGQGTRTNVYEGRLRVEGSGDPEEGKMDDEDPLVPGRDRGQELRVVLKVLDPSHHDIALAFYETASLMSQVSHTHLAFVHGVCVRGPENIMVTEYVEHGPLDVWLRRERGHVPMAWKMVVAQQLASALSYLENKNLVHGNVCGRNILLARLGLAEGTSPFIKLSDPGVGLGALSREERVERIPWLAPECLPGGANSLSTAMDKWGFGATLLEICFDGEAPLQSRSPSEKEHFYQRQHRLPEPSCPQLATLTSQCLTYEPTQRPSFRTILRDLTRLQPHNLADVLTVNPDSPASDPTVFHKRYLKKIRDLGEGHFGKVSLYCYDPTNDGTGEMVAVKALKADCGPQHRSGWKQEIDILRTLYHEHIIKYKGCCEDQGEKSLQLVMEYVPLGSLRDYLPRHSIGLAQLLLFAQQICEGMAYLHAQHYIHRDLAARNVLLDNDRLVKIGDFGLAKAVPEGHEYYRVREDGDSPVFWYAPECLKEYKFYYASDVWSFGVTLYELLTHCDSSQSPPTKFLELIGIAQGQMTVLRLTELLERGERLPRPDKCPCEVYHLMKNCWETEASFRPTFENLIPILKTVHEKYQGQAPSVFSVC
Description: as §1, §2, §3

Sequence of JAK2 (O60674 whole entry): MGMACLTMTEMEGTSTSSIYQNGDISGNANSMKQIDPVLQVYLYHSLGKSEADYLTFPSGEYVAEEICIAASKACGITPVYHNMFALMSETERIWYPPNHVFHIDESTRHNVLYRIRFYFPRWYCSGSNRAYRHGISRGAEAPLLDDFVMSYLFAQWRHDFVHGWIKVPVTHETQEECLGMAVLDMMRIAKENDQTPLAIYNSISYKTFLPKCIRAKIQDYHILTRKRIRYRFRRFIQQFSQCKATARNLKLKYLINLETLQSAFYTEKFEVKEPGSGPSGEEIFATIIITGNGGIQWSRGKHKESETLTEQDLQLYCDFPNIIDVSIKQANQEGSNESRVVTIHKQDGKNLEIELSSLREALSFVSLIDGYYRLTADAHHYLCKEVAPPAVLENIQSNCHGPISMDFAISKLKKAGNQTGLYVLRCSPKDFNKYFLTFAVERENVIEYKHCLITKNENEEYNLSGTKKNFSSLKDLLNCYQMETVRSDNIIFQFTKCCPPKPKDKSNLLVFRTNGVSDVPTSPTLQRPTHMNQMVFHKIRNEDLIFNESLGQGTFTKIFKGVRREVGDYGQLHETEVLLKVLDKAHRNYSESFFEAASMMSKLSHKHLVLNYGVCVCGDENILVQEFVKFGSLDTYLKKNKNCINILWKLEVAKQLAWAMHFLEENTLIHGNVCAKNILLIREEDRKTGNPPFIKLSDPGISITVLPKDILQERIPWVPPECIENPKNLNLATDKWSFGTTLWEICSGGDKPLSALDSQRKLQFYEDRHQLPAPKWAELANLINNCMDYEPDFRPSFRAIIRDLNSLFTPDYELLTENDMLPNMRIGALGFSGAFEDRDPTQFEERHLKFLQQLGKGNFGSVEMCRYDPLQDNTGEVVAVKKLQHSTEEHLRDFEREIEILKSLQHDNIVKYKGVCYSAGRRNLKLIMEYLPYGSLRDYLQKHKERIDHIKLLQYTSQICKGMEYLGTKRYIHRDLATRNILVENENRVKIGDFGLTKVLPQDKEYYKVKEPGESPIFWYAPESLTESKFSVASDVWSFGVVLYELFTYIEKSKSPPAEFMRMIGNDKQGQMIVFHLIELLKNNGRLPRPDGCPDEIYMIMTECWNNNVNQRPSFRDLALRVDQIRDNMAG

Question: With `O=C1NCc2nc(-c3c(F)cccc3F)cc(Nc3ccc4c(n3)NCC4)c21` [Compound I-22, 2-(2,6-difluorophenyl)-4-((2,3-dihydro-1H-pyrrolo[2,3-b]pyridin-6-yl)amino)-6,7-dihydro-5H-pyrrolo[3,4-b]pyridin-5-one] as the molecule, how does the pKi (JAK2) read?
Answer: Its pKi is 7.00 to 8.00.

Question: And the pKi (TYK2)?
Answer: The pKi was at least 8.00.

Question: Which results are given for `CC1(C)COc2nc(Nc3cc(-c4c(F)cccc4C#N)nc4c3C(=O)NC4)ccc21` [Compound I-85, 2-(4-((3,3-dimethyl-2,3-dihydrofuro[2,3-b]pyridin-6-yl)amino)-5-oxo-6,7-dihydro-5H-pyrrolo[3,4-b]pyridin-2-yl)-3-fluorobenzonitrile]?
Answer: pKi (JAK2): ≤ 6.00; pKi (TYK2): ≤ 6.00

Question: With `C[C@](O)(C(=O)O)c1ccc(Nc2nc(-c3c(F)cccc3F)nc3c2C(=O)NC3)cc1` [Compound I-8, (R)-2-(4-((2-(2,6-difluorophenyl)-5-oxo-6,7-dihydro-5H-pyrrolo[3,4-d]pyrimidin-4-yl)amino)phenyl)-2-hydroxypropanoic acid] as the molecule, how does the pKi (JAK2) read?
Answer: The pKi was 6.00 to 7.00.

Question: What about the pKi (TYK2) of the same molecule?
Answer: The pKi was at least 8.00.

Question: `C[C@](N)(C(=O)O)c1ccc(Nc2nc(-c3c(F)cccc3F)nc3c2C(=O)NC3)cc1` [Compound I-46, (R)-2-amino-2-(4-((2-(2,6-difluorophenyl)-5-oxo-6,7-dihydro-5H-pyrrolo[3,4-d]pyrimidin-4-yl)amino)phenyl)propanoic acid hydro-chloride] was tested. Which pKi (JAK2) did it give?
Answer: Its pKi is 6.00 to 7.00.

Question: What about the pKi (TYK2) of the same molecule?
Answer: The pKi was 7.00 to 8.00.

Question: `O=C1NCc2nc(-c3c(F)cccc3F)cc(Nc3ccc4c(c3)CS(=O)(=O)C4)c21` [Compound I-86, 2-(2,6-difluorophenyl)-4-((2,2-dioxido-1,3-dihydro-benzo[c]thio-phen-5-yl)amino)-6,7-dihydro-5H-pyrrolo[3,4-b]pyridin-5-one] was tested. Which pKi (JAK2) did it give?
Answer: The pKi was 7.00 to 8.00.

Question: And the pKi (TYK2)?
Answer: Its pKi is at least 8.00.

Question: With `O=C1NCc2nc(-c3c(F)cccc3F)nc(Nc3ccc(OC(CO)CO)cc3)c21` [Compound I-12, 2-(2,6-difluorophenyl)-4-((4-((1,3-dihydroxypropan-2-yl)oxy)phenyl)amino)-6,7-dihydro-5H-pyrrolo[3,4-d]pyrimidin-5-one] as the molecule, how does the pKi (JAK2) read?
Answer: The pKi was 6.00 to 7.00.

Question: What about the pKi (TYK2) of the same molecule?
Answer: Its pKi is at least 8.00.

Question: How did the pKi (JAK2) turn out when `CCNC(=O)C(C)(N)c1ccc(Nc2nc(-c3c(F)cccc3F)nc3c2C(=O)NC3)cc1` (stereo not shown) [Compound I-9, 2-amino-2-(4-((2-(2,6-difluorophenyl)-5-oxo-6,7-dihydro-5H-pyrrolo[3,4-d]pyrimidin-4-yl)amino)phenyl)-N-ethylpropanamide] was run?
Answer: Its pKi is 7.00 to 8.00.

Question: What about the pKi (TYK2) of the same molecule?
Answer: The pKi was 7.00 to 8.00.

Question: How did the pKi (JAK2) turn out when `O=C1NCc2nc(-c3c(F)cccc3F)cc(Nc3ccc(C(=O)N4CCOCC45CC5)cc3)c21` [Compound I-51, 4-((4-(7-oxa-4-azaspiro[2.5]octane-4-carbonyl)phenyl)amino)-2-(2,6-difluorophenyl)-6,7-dihydro-5H-pyrrolo[3,4-b]pyridin-5-one] was run?
Answer: The pKi was at least 8.00.

Question: What about the pKi (TYK2) of the same molecule?
Answer: Its pKi is at least 8.00.

Question: What does the source list for `O=C1NCc2nc(-c3c(F)cccc3F)cc(Nc3ccc(C(O)(C(F)(F)F)C(F)(F)F)cc3)c21` [Compound I-66, 2-(2,6-difluorophenyl)-4-((4-(1,1,1,3,3,3-hexafluoro-2-hydroxy-propan-2-yl)phenyl)amino)-6,7-dihydro-5H-pyrrolo[3,4-b]pyridin-5-one]?
Answer: pKi (JAK2): 7.00 to 8.00; pKi (TYK2): ≥ 8.00

Question: Which results are given for `O=C1NCc2nc(-c3c(F)cccc3F)cc(Nc3ccc(C(=O)N4CCC5(CCCCO5)CC4)cc3)c21` [Compound I-54, 4-((4-(1-oxa-9-azaspiro[5.5]undecane-9-carbonyl)phenyl)amino)-2-(2,6-difluorophenyl)-6,7-dihydro-5H-pyrrolo[3,4-b]pyridin-5-one]?
Answer: pKi (JAK2): 7.00 to 8.00; pKi (TYK2): ≥ 8.00

Question: What does the source list for `CCNC(=O)C(C)(C)c1ccc(Nc2cc(-c3c(F)cccc3C#N)nc3c2C(=O)NC3)cc1` [Compound I-81, 2-(4-((2-(2-cyano-6-fluorophenyl)-5-oxo-6,7-dihydro-5H-pyrrolo[3,4-b]pyridin-4-yl)amino)phenyl)-N-ethyl-2-methylpropanamide]?
Answer: pKi (JAK2): ≥ 8.00; pKi (TYK2): ≥ 8.00
